The source of these data is patent US12187712B2, “Cardiac sarcomere inhibitors” (Cytokinetics, Inc., priority 2018, dated 2025).

Each structure is given as a SMILES string.

In the assay the target is T1, bovine cardiac myofibrils (Bos taurus, UniProt Q9BE39).
T1 construct: full-length cardiac myosin in the context of the native sarcomere, skinned myofibril assays were performed; from tissue; host or cells: bovine cardiac left ventricular tissue, detergent-skinned (Triton X-100) myofibrils
T1 sequence (Q9BE39 whole entry): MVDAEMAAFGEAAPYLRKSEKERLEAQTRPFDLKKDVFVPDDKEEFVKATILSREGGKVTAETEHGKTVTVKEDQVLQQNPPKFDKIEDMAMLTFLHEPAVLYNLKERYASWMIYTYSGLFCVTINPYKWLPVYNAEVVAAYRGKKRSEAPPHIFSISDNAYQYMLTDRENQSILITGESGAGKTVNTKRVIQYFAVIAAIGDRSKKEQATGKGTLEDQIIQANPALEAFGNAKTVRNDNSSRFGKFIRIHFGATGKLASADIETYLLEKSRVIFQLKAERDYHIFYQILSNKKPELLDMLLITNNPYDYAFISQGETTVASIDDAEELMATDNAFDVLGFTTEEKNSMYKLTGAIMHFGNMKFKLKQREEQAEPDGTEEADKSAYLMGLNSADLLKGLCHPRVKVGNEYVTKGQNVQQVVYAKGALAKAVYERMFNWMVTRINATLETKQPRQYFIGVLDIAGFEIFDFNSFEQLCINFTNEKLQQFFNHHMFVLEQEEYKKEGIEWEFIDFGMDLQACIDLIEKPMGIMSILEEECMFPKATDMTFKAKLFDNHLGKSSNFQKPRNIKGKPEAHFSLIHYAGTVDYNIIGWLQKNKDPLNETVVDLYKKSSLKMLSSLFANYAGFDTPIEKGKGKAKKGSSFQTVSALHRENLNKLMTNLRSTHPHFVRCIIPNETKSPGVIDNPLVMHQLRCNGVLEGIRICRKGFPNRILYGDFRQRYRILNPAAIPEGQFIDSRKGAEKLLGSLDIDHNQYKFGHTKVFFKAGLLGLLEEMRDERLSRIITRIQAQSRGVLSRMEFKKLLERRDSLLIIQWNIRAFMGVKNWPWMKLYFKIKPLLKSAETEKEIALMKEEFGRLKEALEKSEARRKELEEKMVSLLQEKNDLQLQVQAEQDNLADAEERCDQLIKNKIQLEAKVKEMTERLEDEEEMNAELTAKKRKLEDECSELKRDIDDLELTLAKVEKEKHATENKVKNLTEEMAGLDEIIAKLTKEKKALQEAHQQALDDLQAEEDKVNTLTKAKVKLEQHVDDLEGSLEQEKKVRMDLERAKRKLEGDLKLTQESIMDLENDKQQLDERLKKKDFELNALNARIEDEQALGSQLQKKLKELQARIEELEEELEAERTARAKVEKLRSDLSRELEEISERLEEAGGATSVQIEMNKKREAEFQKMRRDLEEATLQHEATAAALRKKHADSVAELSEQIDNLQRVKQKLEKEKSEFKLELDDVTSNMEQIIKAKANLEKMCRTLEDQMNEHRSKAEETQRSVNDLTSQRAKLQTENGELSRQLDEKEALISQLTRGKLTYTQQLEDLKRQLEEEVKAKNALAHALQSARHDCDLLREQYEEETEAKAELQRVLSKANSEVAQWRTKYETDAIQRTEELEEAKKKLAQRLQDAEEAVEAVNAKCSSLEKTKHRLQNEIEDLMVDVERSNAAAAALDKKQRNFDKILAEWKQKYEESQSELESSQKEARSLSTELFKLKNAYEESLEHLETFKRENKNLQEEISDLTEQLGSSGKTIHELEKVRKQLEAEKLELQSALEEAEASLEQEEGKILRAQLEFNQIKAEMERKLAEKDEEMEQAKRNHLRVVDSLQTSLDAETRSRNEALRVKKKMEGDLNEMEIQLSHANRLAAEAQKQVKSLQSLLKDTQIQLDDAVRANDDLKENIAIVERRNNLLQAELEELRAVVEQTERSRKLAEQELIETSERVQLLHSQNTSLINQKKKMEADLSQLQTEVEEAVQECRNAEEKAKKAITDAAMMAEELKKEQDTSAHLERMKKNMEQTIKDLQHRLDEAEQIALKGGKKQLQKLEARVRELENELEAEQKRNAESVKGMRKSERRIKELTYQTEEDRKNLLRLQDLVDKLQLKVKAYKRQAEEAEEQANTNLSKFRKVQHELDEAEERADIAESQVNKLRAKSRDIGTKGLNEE
T1 sequence (P85100 whole entry partner): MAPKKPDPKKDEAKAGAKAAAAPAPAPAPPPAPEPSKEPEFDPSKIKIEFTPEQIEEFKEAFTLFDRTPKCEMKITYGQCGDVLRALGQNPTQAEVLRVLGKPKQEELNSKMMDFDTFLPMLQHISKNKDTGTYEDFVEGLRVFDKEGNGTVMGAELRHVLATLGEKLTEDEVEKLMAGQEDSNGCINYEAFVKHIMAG
T1 sequence (Q3SZE5 whole entry partner): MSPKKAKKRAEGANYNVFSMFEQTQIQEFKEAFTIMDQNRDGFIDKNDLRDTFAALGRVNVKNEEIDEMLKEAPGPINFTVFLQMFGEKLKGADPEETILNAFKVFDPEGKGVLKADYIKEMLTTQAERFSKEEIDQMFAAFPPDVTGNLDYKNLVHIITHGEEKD
Nature of the assay: Skinned myofibril ATPase assay (PK/LDH-coupled), CDMF75. The assay is classed as biochemical. The following applies: inhibition of steady-state ATPase activity of bovine cardiac myofibrils at 75% Ca2+ activation (pCa75). How it is done: To evaluate the effect of compounds on the ATPase activity of full-length cardiac myosin in the context of the native sarcomere, skinned myofibril assays were performed. Bovine cardiac myofibrils were obtained by homogenizing bovine cardiac left ventricular tissue in the presence of a detergent such as triton X-100. Such treatment removes membranes and a majority of the soluble cytoplasmic proteins but leaves intact the cardiac sarcomeric acto-myosin apparatus. Myofibril preparations retain the ability to hydrolyze ATP in an Ca^2+ regulated manner. ATPase activities of such myofibril preparations in the presence and absence of compounds were assayed at Ca^2+ concentrations activating to a defined fraction of the maximal rate (i.e., 25%, 75%). Small molecule agents were assessed for their ability to inhibit the steady-state ATPase activity of bovine cardiac myofibrils using pyruvate kinase and lactate dehydrogenase (PK/LDH)-coupled enzyme system. This assay regenerates myosin-produced ADP into ATP by oxidizing NADH, producing an absorbance change at 340 nm. Prior to testing small molecule agents, the bovine cardiac myofibrils were assessed for their calcium responsiveness and the calcium concentration that achieves either a 50% (pCa50) or 75% (pCa75) activation of the myofibril system was chosen as the final condition for assessing the inhibitory activity of the small molecule agents. All enzymatic activity was measured in a buffered solution containing 12 mM PIPES (piperazine-N,N′-bis(2-ethanesulfonic acid), 2 mM magnesium chloride at pH 6.8 (PM 12 buffer). Final assay conditions were 1 mg/mL of bovine cardiac myofibrils, 4 U/mL pyruvate kinase, 6 U/mL lactate dehydrogenase, 50 μM ATP, 0.1 mg/mL BSA (bovine serum albumin), 10 ppm antifoam, 1 mM DTT, 0.5 mM NADH, 1.5 mM PEP, 0.6 mM EGTA, and an amount of CaCl2 sufficient to achieve either 50% or 75% activation of the myofibril ATPase activity. Results for compounds tested are provided in Table A. Compounds tested were prepared in accordance with the synthetic procedures described herein.
Take `Cc1nc(-c2ccc(CNc3cncc(Cl)n3)cc2)no1` [Compound 1, 6-chloro-N-(4-(5-methyl-1,2,4-oxadiazol-3-yl)benzyl)pyrazin-2-amine]: the “CDMF75 IC15” value is 1.4 µM and half-maximal inhibition (IC50) required 8.1 µM.

`Cc1nc(-c2ccc(CNc3cnccn3)cc2)no1` [Compound 2, N-(4-(5-methyl-1,2,4-oxadiazol-3-yl)benzyl)pyrazin-2-amine]: the “CDMF75 IC15” value turned out to be 0.8 µM and 4.3 µM corresponded to half-maximal inhibition (IC50).

`Cc1nc(-c2ccc(CNc3ccncn3)cc2)no1` [Compound 3, N-(4-(5-methyl-1,2,4-oxadiazol-3-yl)benzyl)pyrimidin-4-amine]: the “CDMF75 IC15” value came out at 3.6 µM and half-maximal inhibition (IC50) was put at 27.7 µM.

Consider `Cc1cc(NCc2ccc(-c3noc(C)n3)cc2)ncn1` [Compound 4, 6-methyl-N-(4-(5-methyl-1,2,4-oxadiazol-3-yl)benzyl)pyrimidin-4-amine], for which the “CDMF75 IC15” value turned out to be 1.9 µM and the 50% inhibitory concentration (IC50) came to 6.6 µM.

`Cc1nc(-c2ccc(CNc3cc(C(F)(F)F)ncn3)cc2)no1` [Compound 5, N-(4-(5-methyl-1,2,4-oxadiazol-3-yl)benzyl)-6-(trifluoromethyl)pyrimidin-4-amine] returned an IC50 of 3.7 µM.

In turn, `Cc1nc(-c2ccc(CNc3cc(C4CC4)ncn3)cc2)no1` [Compound 6, 6-cyclopropyl-N-(4-(5-methyl-1,2,4-oxadiazol-3-yl)benzyl)pyrimidin-4-amine] came in with a half-inhibitory concentration (IC50) of 27 µM.

`Cc1nc(-c2ccc(CNc3cc(C#N)ncn3)cc2)no1` [Compound 7, 6-((4-(5-methyl-1,2,4-oxadiazol-3-yl)benzyl)amino)pyrimidine-4-carbonitrile]: 1.8 µM corresponded to half-maximal inhibition (IC50).

For `CCc1cc(NCc2ccc(-c3noc(C)n3)cc2)ncn1` [Compound 8, 6-ethyl-N-(4-(5-methyl-1,2,4-oxadiazol-3-yl)benzyl)pyrimidin-4-amine], the “CDMF75 IC15” value came out at 3.1 µM and 16.6 µM corresponded to half-maximal inhibition (IC50).

With `Cc1nc(-c2ccc(CNc3cc(Cl)ncn3)cc2)no1` [Compound 9, 6-chloro-N-(4-(5-methyl-1,2,4-oxadiazol-3-yl)benzyl)pyrimidin-4-amine], the “CDMF75 IC15” value was 0.3 µM and the concentration for half-maximal inhibition (IC50) stood at 1.2 µM.

Consider `Cc1nc(-c2ccc(CNc3cnc(C#N)cn3)cc2)no1` [Compound 10, 5-((4-(5-methyl-1,2,4-oxadiazol-3-yl)benzyl)amino)pyrazine-2-carbonitrile], for which the “CDMF75 IC15” value was 1.3 µM and 7.6 µM corresponded to half-maximal inhibition (IC50).

As to `CCc1nc(-c2ccc(CNc3cc(C#N)ncn3)cc2)no1` [Compound 11, 6-((4-(5-ethyl-1,2,4-oxadiazol-3-yl)benzyl)amino)pyrimidine-4-carbonitrile], the “CDMF75 IC15” value turned out to be 0.2 µM and 0.7 µM corresponded to half-maximal inhibition (IC50).

As to `Cc1nc(-c2ccc(CNc3ccnc(Cl)n3)cc2)no1` [Compound 12, 2-chloro-N-(4-(5-methyl-1,2,4-oxadiazol-3-yl)benzyl)pyrimidin-4-amine], the “CDMF75 IC15” value was 2.5 µM and the IC50 came to 9.8 µM.

In the case of `Cc1nc(-c2ccc(CNc3cnc(Cl)cn3)cc2)no1` [Compound 13, 5-chloro-N-(4-(5-methyl-1,2,4-oxadiazol-3-yl)benzyl)pyrazin-2-amine], the “CDMF75 IC15” value came to 0.3 µM and the half-inhibitory concentration (IC50) was 1.5 µM.

On to `Cc1nc(-c2ccc(CNc3ccc(C#N)cn3)cc2)no1` [Compound 14, 6-((4-(5-methyl-1,2,4-oxadiazol-3-yl)benzyl)amino) nicotinonitrile], for which the “CDMF75 IC15” value came to 4.6 µM and the half-inhibitory concentration (IC50) came out at 20.9 µM.

As to `Cc1nc(-c2ccc(CNc3cc(C#N)ccn3)cc2)no1` [Compound 15, 2-((4-(5-methyl-1,2,4-oxadiazol-3-yl)benzyl)amino) isonicotinonitrile], the “CDMF75 IC15” value was determined as 1.0 µM and half-maximal inhibition (IC50) was put at 5.5 µM.

Turning to `Cc1nc(-c2ccc(CNc3cnc(C(F)(F)F)cn3)cc2)no1` [Compound 16, N-(4-(5-methyl-1,2,4-oxadiazol-3-yl)benzyl)-5-(trifluoromethyl)pyrazin-2-amine], the “CDMF75 IC15” value came out at 3.1 µM and half-maximal inhibition (IC50) required 17.3 µM.

For the compound `Cc1nc(-c2ccc(CNc3cc(C#N)ncn3)nc2)no1` [Compound 17, 6-(((5-(5-methyl-1,2,4-oxadiazol-3-yl)pyridin-2-yl)methyl)amino)pyrimidine-4-carbonitrile], the “CDMF75 IC15” value turned out to be 2.9 µM and half-maximal inhibition (IC50) was put at 18.9 µM.

In the case of `Cc1noc(-c2ccc(CNc3cc(Cl)ncn3)cc2)n1` [Compound 18, 6-chloro-N-(4-(3-methyl-1,2,4-oxadiazol-5-yl)benzyl)pyrimidin-4-amine], the “CDMF75 IC15” value came to 0.4 µM and the IC50 came to 2.1 µM.

Turning to `Cc1nc(-c2ccc(CNc3ccc(Cl)cn3)cc2)no1` [Compound 20, 5-chloro-N-(4-(5-methyl-1,2,4-oxadiazol-3-yl)benzyl)pyridin-2-amine], the “CDMF75 IC15” value was found to be 1.5 µM and half-maximal inhibition (IC50) was put at 5.2 µM.

`Cc1nc(-c2ccc(C(C)Nc3cc(Cl)ncn3)cc2)no1` (stereo not drawn) [Compound 21, 6-chloro-N-(1-(4-(5-methyl-1,2,4-oxadiazol-3-yl)phenyl)ethyl)pyrimidin-4-amine]: the “CDMF75 IC15” value worked out at 2.2 µM and the IC50 stood at 12.8 µM.

On to `c1cnc(NCc2ccc(-c3noc(C4CC4)n3)cc2)cn1` [Compound 22, N-(4-(5-cyclopropyl-1,2,4-oxadiazol-3-yl)benzyl)pyrazin-2-amine], for which the “CDMF75 IC15” value was 0.4 µM and half-maximal inhibition (IC50) required 1.8 µM.

Take `c1cnc(NCc2ccc(-c3noc(C4CCC4)n3)cc2)cn1` [Compound 23, N-(4-(5-cyclobutyl-1,2,4-oxadiazol-3-yl)benzyl)pyrazin-2-amine]: the “CDMF75 IC15” value is 0.3 µM and the half-maximal inhibitory concentration (IC50) is 1.4 µM.

Turning to `FC(F)c1nc(-c2ccc(CNc3cnccn3)cc2)no1` [Compound 24, N-(4-(5-(difluoromethyl)-1,2,4-oxadiazol-3-yl)benzyl)pyrazin-2-amine], the “CDMF75 IC15” value was 0.8 µM and the IC50 was 3.1 µM.

Take `FCc1nc(-c2ccc(CNc3cnccn3)cc2)no1` [Compound 25, N-(4-(5-(fluoromethyl)-1,2,4-oxadiazol-3-yl)benzyl)pyrazin-2-amine]: the “CDMF75 IC15” value amounted to 1.1 µM and the half-inhibitory concentration (IC50) amounted to 4.5 µM.

As to `Cc1nc(-c2ccc(C(C)Nc3cnccn3)cc2)no1` (stereo not drawn) [Compound 26, N-(1-(4-(5-methyl-1,2,4-oxadiazol-3-yl)phenyl)ethyl)pyrazin-2-amine], the “CDMF75 IC15” value came to 1.1 µM and half-maximal inhibition (IC50) was put at 5.6 µM.

With `Cc1cnc(-c2ccc(CNc3cc(Cl)ncn3)cc2)o1` [Compound 27, 6-chloro-N-(4-(5-methyloxazol-2-yl)benzyl)pyrimidin-4-amine], the “CDMF75 IC15” value was determined as 1.2 µM and the half-maximal inhibitory concentration (IC50) worked out at 8.9 µM.

On to `Cc1cnn(-c2ccc(CNc3cnccn3)cc2)c1` [Compound 29, N-(4-(4-methyl-1H-pyrazol-1-yl)benzyl)pyrazin-2-amine], for which the “CDMF75 IC15” value is 8.1 µM and half-maximal inhibition (IC50) required 38.9 µM.

For the compound `COC(=O)c1nc(-c2ccc(CNc3cnccn3)cc2)no1` [Compound 30, methyl 3-(4-((pyrazin-2-ylamino)methyl)phenyl)-1,2,4-oxadiazole-5-carboxylate], the “CDMF75 IC15” value is 0.5 µM and the half-maximal inhibitory concentration (IC50) was 2.6 µM.

With `C[C@@H](Nc1cnccn1)c1ccc(-c2noc(C3CC3)n2)cc1` [Compound 31, (R)-N-(1-(4-(5-cyclopropyl-1,2,4-oxadiazol-3-yl)phenyl)ethyl)pyrazin-2-amine], the “CDMF75 IC15” value came to 0.4 µM and the IC50 is 1.51 µM.

In the case of `C[C@@H](Nc1cnccn1)c1ccc(-c2noc(C3CCC3)n2)cc1` [Compound 32, (R)-N-(1-(4-(5-cyclobutyl-1,2,4-oxadiazol-3-yl)phenyl)ethyl)pyrazin-2-amine], the “CDMF75 IC15” value stood at 0.3 µM and the 50% inhibitory concentration (IC50) worked out at 1.4 µM.

In the case of `C[C@@H](Nc1cnccn1)c1ccc(-c2noc(C(F)F)n2)cc1` [Compound 33, (R)-N-(1-(4-(5-(difluoromethyl)-1,2,4-oxadiazol-3-yl)phenyl)ethyl)pyrazin-2-amine], the “CDMF75 IC15” value worked out at 0.3 µM and the midpoint of inhibition, the IC50, lay at 1.5 µM.

For `CC(C)c1nc(-c2ccc([C@@H](C)Nc3cnccn3)cc2)no1` [Compound 35, (R)-N-(1-(4-(5-isopropyl-1,2,4-oxadiazol-3-yl)phenyl)ethyl)pyrazin-2-amine], the “CDMF75 IC15” value was determined as 0.7 µM and the IC50 came out at 3 µM.

As for `C[C@@H](Nc1cnccn1)c1ccc(-c2noc(C(C)(C)C)n2)cc1` [Compound 36, (R)-N-(1-(4-(5-(tert-butyl)-1,2,4-oxadiazol-3-yl)phenyl)ethyl)pyrazin-2-amine], the “CDMF75 IC15” value amounted to 7.1 µM and the half-maximal inhibitory concentration (IC50) was determined as 36.5 µM.

Usually IC50 stands for the midpoint of a concentration-inhibition curve.
